# In patent US8802597B2, “Herbicidal pyrimidines” (E I du Pont de Nemours and Company, priority 2003, dated 2014):
# Legend:
# Type in all cases: in vivo
# [1] = system: water-seeded rice seedlings (ORYSW; Oryza sativa cv. ‘Japonica-M202’); test: Test J mixtures of compound 58 with azimsulfuron, flooded paddy; details: 21 days, scale 0-100
# Text: (§1) This test evaluated the effect of mixtures of compound 58 with azimsulfuron on several plant species. Three plastic pots (ca. 16-cm diameter) per rate were partially filled with sterilized Tama silt loam soil comprising a 35:50:15 ratio of sand, silt and clay and 2.6% organic matter. Separate plantings for each of the three pots were as follows. Seeds from the U.S. of ducksalad (HETLI; Heteranthera limosa), smallflower umbrella sedge (CYPDI; Cyperus difformis) and purple redstem (AMMCO; Ammannia coccinea), were planted into one 16-cm pot for each rate. Seeds from the U.S. of bearded sprangletop (LEFUF; Leptochloa fusca ssp. fascicularis), one stand of 9 or 10 water-seeded rice seedlings (ORYSW; Oryza sativa cv. ‘Japonica-M202’), and one stand of 6 transplanted rice seedlings (ORYSP; Oryza sativa cv. ‘Japonica-M202’) were planted into one 16-cm pot for each rate. Seeds from the U.S. of barnyardgrass (ECHCG; Echinochloa crus-galli), late watergrass (ECOR2; Echinochloa oryzicola), early watergrass (ECHOR; Echinochloa oryzoides) and junglerice (ECHCO; Echinochloa colona) were planted into one 16-cm pot for each rate. Plantings were sequential so that crop and weed species were at the 2.0 to 2.5-leaf stage at time of treatment.
# (§2) Potted plants were grown in a greenhouse with day/night temperature settings of 29.5/26.7° C., and supplemental balanced lighting was provided to maintain a 16-hour photoperiod. Test pots were maintained in the greenhouse until test completion.
# (§3) At time of treatment, test pots were flooded to 3 cm above the soil surface and then treated by application directly to the paddy water of test compounds formulated in a non-phytotoxic solvent mixture which included a surfactant. The pots were maintained at the 3-cm water depth for the duration of the test. Treatments consisted of compound 58 and azimsulfuron alone and in combination. Effects of treatments on rice and weeds were visually evaluated by comparison to untreated controls after 21 days. Plant response ratings were calculated as the means of the three replicates and are summarized in Table J. The ratings are based on a scale of 0 to 100 where 0 is no effect and 100 is complete control. A dash (-) response means no test result. Colby's Equation was used to determine the herbicidal effects expected from the mixtures.
# [2] = system: early watergrass (ECHOR; Echinochloa oryzoides); test: as above; details: 21 days, scale 0-100
# Text: as §1, §2, §3
# [3] = system: large crabgrass (DIGSA, Digitaria sanguinalis (L.) Scop.); test: Test H mixtures of compound 1 with diflufenzopyr; details: foliage spray
# Text: (§4) This test evaluated the effect of mixtures of compound 1 with diflufenzopyr on several plant species. Seeds of test plants consisting of large crabgrass (DIGSA, Digitaria sanguinalis (L.) Scop.), lambsquarters (CHEAL, Chenopodium album L.), redroot pigweed (AMARE, Amaranthus retroflexus L.), cocklebur (XANST, Xanthium strumarium L.), barnyardgrass (ECHCG; Echinochloa crus-galli (L.) Beauv.), corn (ZEAMD, Zea mays L. cv. ‘Pioneer 33G26’), scarlet (red) morningglory (IPOCO, Ipomoea coccinea L.), giant foxtail (SETFA, Setaria faberi Herrm.) and velvetleaf (ABUTH, Abutilon theophrasti Medik.) were planted in pots containing Redi-Earth® planting medium (Scotts Company, 14111 Scottslawn Road, Marysville, Ohio 43041) comprising spaghnum peat moss, vermiculite, wetting agent and starter nutrients. Seeds of small-seeded species were planted about 1 cm deep; larger seeds were planted about 2.5 cm deep. Plants were grown in a greenhouse using supplemental lighting to maintain a photoperiod of about 14 hours; daytime and nighttime temperatures were about 25-30° C. and 22-25° C., respectively. Balanced fertilizer was applied through the watering system. The plants were grown for 7 to 11 days so that at time of treatment the plants ranged in height from 2 to 18 cm (1- to 4-leaf stage). Treatments consisted of Compound 1 and diflufenzopyr alone and in combination, suspended or dissolved in an aqueous solvent comprising glycerin and Tween nonionic surfactant and applied as a foliage spray using a volume of 541 L/ha. Each treatment was replicated four times. […] Treated plants and controls were maintained in the greenhouse and watered as needed with care to not wet the foliage for the first 24 hours after treatment. The effects on the plants approximately 3 weeks after treatment were visually compared to untreated controls. Plant response ratings were calculated as the means of the four replicates, based on a scale of 0 to 100 where 0 is no effect and 100 is complete control. Colby's Equation was used to determine the herbicidal effects expected from the mixtures. Colby's Equation (Colby, S. R. “Calculating Synergistic and Antagonistic Responses of Herbicide Combinations,” Weeds, 15(1), pp 20-22 (1967)) calculates the expected additive effect of herbicidal mixtures, and for two active ingredients is of the form: Pa+b=Pa+Pb−(PaPb/100) wherein Pa+b is the percentage effect of the mixture expected from additive contribution of the individual components, • Pa is the observed percentage effect of the first active ingredient at the same use rate as in the mixture, and • Pb is the observed percentage effect of the second active ingredient at the same use rate as in the mixture.
# [4] = system: scarlet (red) morningglory (IPOCO, Ipomoea coccinea L.); test: Test H mixtures of compound 1 with diflufenzopyr; details: foliage spray
# Text: as §4
# [5] = system: cocklebur (XANST, Xanthium strumarium L.); test: Test H mixtures of compound 1 with diflufenzopyr; details: foliage spray
# Text: as §4
# [6] = system: lambsquarters (CHEAL, Chenopodium album L.); test: Test H mixtures of compound 1 with diflufenzopyr; details: foliage spray
# Text: as §4
# [7] = system: corn (ZEAMD, Zea mays L. cv. ‘Pioneer 33G26’); test: Test H mixtures of compound 1 with diflufenzopyr; details: foliage spray
# Text: as §4
# [8] = system: barnyardgrass (ECHCG; Echinochloa crus-galli (L.) Beauv.); test: Test H mixtures of compound 1 with diflufenzopyr; details: foliage spray
# Text: as §4
# [9] = system: velvetleaf (ABUTH, Abutilon theophrasti Medik.); test: Test H mixtures of compound 1 with diflufenzopyr; details: foliage spray
# Text: as §4
# [10] = system: giant foxtail (SETFA, Setaria faberi Herrm.); test: Test H mixtures of compound 1 with diflufenzopyr; details: foliage spray
# Text: as §4
# [11] = system: redroot pigweed (AMARE, Amaranthus retroflexus L.); test: Test H mixtures of compound 1 with diflufenzopyr; details: foliage spray
# Text: as §4
smiles,measurement,setting,value
"COC(=O)c1nc(-c2ccc(Cl)cc2)nc(N)c1Cl [Compound 58, methyl 6-amino-5-chloro-2-(4-chlorophenyl)-4-pyrimidinecarboxylate]",ORYSW Obsd.,[1]; Cmpd 58 16 g a.i./ha alone,10
same,ORYSW Obsd.,[1]; Cmpd 58 32 g a.i./ha alone,10
same,ORYSW Obsd.,[1]; Cmpd 58 64 g a.i./ha alone,20
same,ECHOR Obsd.,[2]; Compound 58 16 g a.i./ha alone,0
same,ECHOR Obsd.,[2]; Compound 58 32 g a.i./ha alone,0
same,ECHOR Obsd.,[2]; Compound 58 64 g a.i./ha alone,0
"CCOC(=O)c1nc(C2CC2)nc(N)c1Br [Compound 1, ethyl 6-amino-5-bromo-2-cyclopropyl-4-pyrimidinecarboxylate]",Obsd. observed effect (0 to 100 scale),[3]; Cmpd 1 31 g a.i./ha,7
same,Obsd. observed effect (0 to 100 scale),[3]; Cmpd 1 62 g a.i./ha,37
same,Obsd. observed effect (0 to 100 scale),[3]; Cmpd 1 125 g a.i./ha,81
same,Obsd. observed effect (0 to 100 scale),[4]; Cmpd 1 31 g a.i./ha,92
same,Obsd. observed effect (0 to 100 scale),[4]; Cmpd 1 62 g a.i./ha,97
same,Obsd. observed effect (0 to 100 scale),[4]; Cmpd 1 125 g a.i./ha,100
same,Obsd. observed effect (0 to 100 scale),[5]; Cmpd 1 31 g a.i./ha,87
same,Obsd. observed effect (0 to 100 scale),[5]; Cmpd 1 62 g a.i./ha,98
same,Obsd. observed effect (0 to 100 scale),[5]; Cmpd 1 125 g a.i./ha,97
same,Obsd. observed effect (0 to 100 scale),[6]; Cmpd 1 31 g a.i./ha,98
same,Obsd. observed effect (0 to 100 scale),[6]; Cmpd 1 62 g a.i./ha,100
same,Obsd. observed effect (0 to 100 scale),[6]; Cmpd 1 125 g a.i./ha,100
same,Obsd. observed effect (0 to 100 scale),[7]; Cmpd 1 31 g a.i./ha,2
same,Obsd. observed effect (0 to 100 scale),[7]; Cmpd 1 62 g a.i./ha,5
same,Obsd. observed effect (0 to 100 scale),[7]; Cmpd 1 125 g a.i./ha,22
same,Obsd. observed effect (0 to 100 scale),[8]; Cmpd 1 31 g a.i./ha,25
same,Obsd. observed effect (0 to 100 scale),[8]; Cmpd 1 62 g a.i./ha,42
same,Obsd. observed effect (0 to 100 scale),[8]; Cmpd 1 125 g a.i./ha,90
same,Obsd. observed effect (0 to 100 scale),[9]; Cmpd 1 31 g a.i./ha,14
same,Obsd. observed effect (0 to 100 scale),[9]; Cmpd 1 62 g a.i./ha,26
same,Obsd. observed effect (0 to 100 scale),[9]; Cmpd 1 125 g a.i./ha,93
same,Obsd. observed effect (0 to 100 scale),[10]; Cmpd 1 31 g a.i./ha,2
same,Obsd. observed effect (0 to 100 scale),[10]; Cmpd 1 62 g a.i./ha,4
same,Obsd. observed effect (0 to 100 scale),[10]; Cmpd 1 125 g a.i./ha,65
same,Obsd. observed effect (0 to 100 scale),[11]; Cmpd 1 31 g a.i./ha,91
same,Obsd. observed effect (0 to 100 scale),[11]; Cmpd 1 62 g a.i./ha,97
same,Obsd. observed effect (0 to 100 scale),[11]; Cmpd 1 125 g a.i./ha,100
